Reference: ChEMBL document CHEMBL6177942, “Recent advances of selenized tubulin inhibitors in cancer therapy” (Bioorg Med Chem Lett, 2025)

Legend:
RKO [1] = experiment: Antiproliferative activity against human RKO cells assessed as reduction in cell growth measured for 48 hrs by MTT assay; assay type: functional, cell-based; details: pooled result: one value given for 6 cell lines, strains, targets or settings
SGC-7901 = experiment: Antiproliferative activity against human SGC-7901 cells assessed as reduction in cell viability by MTT assay; assay type: functional, cell-based
KB = experiment: Antiproliferative activity against human KB cells assessed as reduction in cell viability by MTT assay; assay type: functional, cell-based
HT-1080 = experiment: Antiproliferative activity against human HT-1080 cells assessed as reduction in cell viability by MTT assay; assay type: functional, cell-based
A549 = experiment: Antiproliferative activity against human A549 cells assessed as reduction in cell viability incubated for 48 hrs by MTT assay; assay type: functional, cell-based; details: A549, 48 h
MDA-MB-231 [2] = experiment: Antiproliferative activity against human MDA-MB-231 cells assessed as reduction in cell viability incubated for 48 hrs by MTT assay; assay type: functional, cell-based; details: MDA-MB-231, 48 h
HepG2 = experiment: Antiproliferative activity against human HepG2 cells assessed as reduction in cell viability incubated for 48 hrs by MTT assay; assay type: functional, cell-based; details: HepG2, 48 h
RKO [3] = experiment: Antiproliferative activity against human RKO cells assessed as reduction in cell viability incubated for 48 hrs by MTT assay; assay type: functional, cell-based
HCT-116 = experiment: Antiproliferative activity against human HCT-116 cells assessed as reduction in cell viability incubated for 48 hrs by MTT assay; assay type: functional, cell-based; details: HCT-116, 48 h
HeLa = experiment: Antiproliferative activity against human HeLa cells assessed as reduction in cell viability incubated for 48 hrs by MTT assay; assay type: functional, cell-based
MCF7 = experiment: Antiproliferative activity against human MCF7 cells assessed as reduction in cell viability incubated for 72 hrs by MTT assay; assay type: functional, cell-based; details: MCF7, 72 h
MDA-MB-231 [4] = experiment: Antiproliferative activity against human MDA-MB-231 cells assessed as reduction in cell viability incubated for 72 hrs by MTT assay; assay type: functional, cell-based; details: MDA-MB-231, 72 h
[5] = Antiproliferative activity against human MCF-10A cells assessed as reduction in cell viability incubated for 72 hrs by MTT assay; assay type: toxicity, cell-based
NCI/ADR-RES = experiment: Antiproliferative activity against human MCF7ADR cells assessed as reduction in cell viability incubated for 72 hrs by MTT assay; assay type: functional, cell-based

C[Se]c1ccc(N(C)c2nc(=O)[nH]c3ccccc23)cc1
IC50 (RKO [1]): 17.4 nM

CN(c1ccc([Se]C#N)cc1)c1nc(Cl)nc2ccccc12
IC50 (RKO [1]): 3.39 nM

COc1ccc(/C=C\c2cc(OC)c(OC)c(OC)c2)cc1O [COMBRETASTATIN A4]
IC50 (SGC-7901): 11 nM | IC50 (KB): 4 nM | IC50 (HT-1080): 11 nM

COc1cc(C(=O)/C=C/c2c[nH]c3ccccc23)cc([Se]C)c1OC
IC50 (A549): 29 nM | IC50 (MDA-MB-231 [2]): 29 nM | IC50 (HepG2): 29 nM | IC50 (RKO [3]): 29 nM | IC50 (HCT-116): 29 nM | IC50 (HeLa): 29 nM

Cc1cc([Se]C#N)ccc1N(C)c1nc(Cl)nc2ccccc12
IC50 (RKO [1]): 37.9 nM

COc1nc(N(C)c2ccc([Se]C)cc2)c2ccccc2n1
IC50 (RKO [1]): 4.78 nM

Cc1cc(N(C)c2nc(Cl)nc3ccccc23)ccc1[Se]C#N
IC50 (RKO [1]): 6.01 nM

COc1ccc([Se]c2c(C)[nH]c3c(OC)c(OC)c(OC)cc23)cc1O
IC50 (SGC-7901): 54 nM | IC50 (KB): 25 nM | IC50 (HT-1080): 14 nM

COc1ccc([Se](=O)c2cc(OC)c(OC)c(OC)c2)cc1O (stereo not given)
IC50 (MCF7): 25 nM | IC50 (MDA-MB-231 [4]): 6.3 nM | IC50 at 72 h [5]: 131 nM | IC50 (NCI/ADR-RES): 26.3 nM

COc1ccc([Se]c2c[nH]c3c(OC)c(OC)c(OC)cc23)cc1O
IC50 (SGC-7901): 220 nM | IC50 (KB): 640 nM | IC50 (HT-1080): 1000 nM

C[Se]c1ccc(N(C)c2nc(Cl)nc3ccccc23)cc1
IC50 (RKO [1]): 2.77 nM
